Read-outs that look alike come from different tables or passages of the source. Each block holds one molecule with its values, some of them ahead of it.
Columns and labels:
Type in all cases: biochemical
[1] = biological target: I260M pol β (Homo sapiens, UniProt P06746, I260M); settings: for Kd / kpol: 37 °C
[2] = biological target: WT pol β (Homo sapiens, UniProt P06746); settings: WT; for Kd / kpol: 37 °C
[3] = test system: WT pol β; settings: D kpol WT analogue/D kpol I260M analogue
[4] = I260M, A-T: correct incorporation of dTTP (analogue) opposite template A
[5] = A-T: correct incorporation of dTTP (analogue) opposite template A
[6] = I260M, A-G: misincorporation of dGTP (analogue) opposite template A
[7] = A-G: misincorporation of dGTP (analogue) opposite template A

Efficiency (kpol/Kd) [1, 4]: 60000 ± 20000 M⁻¹ s⁻¹
Kd [1, 4]: 5 ± 1.5 µM
kpol [1, 4]: 0.30 ± 0.01 s⁻¹
Efficiency (kpol/Kd) [2, 5]: 120000 ± 30000 M⁻¹ s⁻¹
Kd [2, 5]: 6.7 ± 1.8 µM
kpol [2, 5]: 0.80 ± 0.10 s⁻¹
Molecule: Cc1cn([C@H]2C[C@H](O)[C@@H](COP(=O)(O)OP(=O)(O)CP(=O)(O)O)O2)c(=O)[nH]c1=O [A-T CH2, β,γ-CH2 dTTP]

Efficiency (kpol/Kd) [1, 6]: 18 ± 9.1 M⁻¹ s⁻¹
Kd [1, 6]: 795 ± 373 µM
kpol [1, 6]: 0.014 ± 0.003 s⁻¹
Efficiency (kpol/Kd) [2, 7]: 22 ± 8.5 M⁻¹ s⁻¹
Kd [2, 7]: 626 ± 220 µM
kpol [2, 7]: 0.014 ± 0.002 s⁻¹
Molecule: Nc1nc2c(ncn2[C@H]2C[C@H](O)[C@@H](COP(=O)(O)OP(=O)(O)OP(=O)(O)O)O2)c(=O)[nH]1 [A-G O, dGTP, reference compound]

Efficiency (kpol/Kd) [1, 4]: 200000 ± 80000 M⁻¹ s⁻¹
Kd [1, 4]: 40.1 ± 15.5 µM
kpol [1, 4]: 7.90 ± 1.30 s⁻¹
kpol ([1]; I260M, A-T: correct incorporation of dTTP (analogue) opposite template A, listed as dTTP): 7.9 s⁻¹
Kd of I260M relative to WT (fold higher) ([1]; correct parent dTTP): 4 fold
Efficiency (kpol/Kd) [2, 5]: 1.22e+06 ± 140000 M⁻¹ s⁻¹
Kd [2, 5]: 10.5 ± 1.1 µM
kpol [2, 5]: 12.8 ± 0.60 s⁻¹
kpol ([2]; A-T: correct incorporation of dTTP (analogue) opposite template A, listed as dTTP): 12.8 s⁻¹
Molecule: Cc1cn([C@H]2C[C@H](O)[C@@H](COP(=O)(O)OP(=O)(O)OP(=O)(O)O)O2)c(=O)[nH]c1=O [A-T O, dTTP, reference compound]

D kpol (analogue/parent) ([1]; I260M, D kpol analogue/D kpol parent): 1.0
F (analogue/parent) ([1]; I260M, F analogue/F parent): 0.6
F analogue (fidelity) ([1]; I260M, dTTP (correct) vs dGTP (incorrect) analogue opposite template A): 7060
D kpol(c/i) analogue ([1]; I260M, discrimination at kpol = kpol(correct)/kpol (incorrect)): 551.7
I260M/WT analogue ([1]; [F I260M(analogue)]/[F WT (analogue)]): 0.3
I260M/WT (analogue/parent) ([1]; [F I260M(analogue/parent)]/[F WT (analogue/parent)]): 1.3
D kpol (analogue/parent) ([2]; D kpol analogue/D kpol parent): 0.9
F (analogue/parent) ([2]; F analogue/F parent): 0.5
F analogue (fidelity) ([2]; dTTP (correct) vs dGTP (incorrect) analogue opposite template A): 27818
D kpol(c/i) analogue ([2]; discrimination at kpol = kpol(correct)/kpol (incorrect)): 842.9
Molecule: CHCl
D kpol analogue WT/I260M [3]: 1.5

Reference: paper PMC5634933 (Biochemistry, 2017)
